Data taken from patent US20250345391A1, “COMPOSITIONS AND METHODS FOR THE TREATMENT OF SEPSIS” (Children's Hospital Medical Center, priority 2022, published 2025).

Key:
Type in all cases: in vivo, Male C57BL/6 mice
AMPK = experiment: Western blot of AMPKα and pAMPKα in thoracic aorta cytosol after CLP; details: 6 h after CLP; colivelin i.p. at 1 h after CLP; vs vehicle; dose-independent
Text: (§1) The investigation conformed to the National Institutes of Health Guide for the Care and Use of Laboratory Animals (Eighth Edition, 2011) and was approved by the Institutional Animal Care and Use Committee of the Cincinnati Children's Hospital Medical Center. Male C57BL/6 mice were obtained from Charles River Laboratories International, Inc. (Wilmington, MA). Mice were used at 3-5 months of age to mimic the equivalent for human ranges from 20-25 years (29). Male mice only were chosen for the experimentation to avoid interference from female hormonal fluctuations in sepsis responses during the estrous cycle. Mice were housed in pathogen-free conditions under a 10-h light/14-h dark cycle with free access to food and water. […]
Subcellular fractionation was performed using a centrifugation model. […] The Bradford protein assay was then used for quantitative determination of total proteins.
Cytosol content of total AMPKα1/α2 and its phosphorylated form pAMPKα1/α2 (Santa Cruz Biotechnology, Dallas, TX, USA), cytosol and nuclear content of STAT3 and its phosphorylated forms pSTAT3(Tyr705) and pSTAT3(Ser727) (Cell Signaling Technology, Danvers, MA, USA) were determined by immunoblot analyses; β-actin was concomitantly probed with mouse anti-β-actin (Santa Cruz Biotechnology) as a loading control for both cytosol and nuclear proteins. […] The immunoreaction was detected by near-infrared fluorescence. […]

lung sections = experiment: Lung histopathology after CLP sepsis; details: 6 h after CLP; colivelin 100 or 200 μg/kg i.p. at 1 h after CLP; vs vehicle
Text: as §1, with “water. Mice were anesthetized with 2.0% isoflurane in 50% oxygen and polymicrobial sepsis was induced by cecal ligation and puncture (CLP) (30).” for “water.”
Paraffin-embedded sections of thoracic aortas and lungs were stained with hematoxylin and eosin for morphological evaluation by three independent observers blinded to the treatment groups. Lung injury was also analyzed by a semiquantitative score based on the following histologic features: alveolar capillary congestion, infiltration of red blood cells and inflammatory cells into the airspace, alveolar wall thickness, and hyaline membrane formation (34). […]

[1] = tested on: endothelial glycocalyx and mitochondria of thoracic aortas; experiment: Transmission electron microscopy of thoracic aortas with lanthanum staining after CLP; details: 6 h after CLP; colivelin 100 μg/kg i.p. at 1 h after CLP; vs vehicle
Text: as §1, with “water. Mice were anesthetized with 2.0% isoflurane in 50% oxygen and polymicrobial sepsis was induced by cecal ligation and puncture (CLP) (30). After a midline laparotomy, the cecum was exteriorized, ligated and punctured twice with a 23-G needle. The cecum was then returned into the peritoneal cavity and the abdominal incision was closed.” for “water.”
Glycocalyx structure was assessed by transmission electron microscopy (35). […]

STAT3 = experiment: Western blot of STAT3 and phosphorylated forms in thoracic aorta after CLP; details: 6 h after CLP
Text: The investigation conformed to the National Institutes of Health Guide for the Care and Use of Laboratory Animals (Eighth Edition, 2011) and was approved by the Institutional Animal Care and Use Committee of the Cincinnati Children's Hospital Medical Center. Male C57BL/6 mice were obtained from Charles River Laboratories International, Inc. (Wilmington, MA). Mice were used at 3-5 months of age to mimic the equivalent for human ranges from 20-25 years (29). Male mice only were chosen for the experimentation to avoid interference from female hormonal fluctuations in sepsis responses during the estrous cycle. Mice were housed in pathogen-free conditions under a 10-h light/14-h dark cycle with free access to food and water. Mice were anesthetized with 2.0% isoflurane in 50% oxygen and polymicrobial sepsis was induced by cecal ligation and puncture (CLP) (30). After a midline laparotomy, the cecum was exteriorized, ligated and punctured twice with a 23-G needle. The cecum was then returned into the peritoneal cavity and the abdominal incision was closed. After the procedure, mice were randomly assigned to three treatment groups: a vehicle-treated group received distilled water (200 μl/mouse) intraperitoneally (i.p.); a 100 μg colivelin-treated group received the colivelin at 100 μg/kg i.p., and a 200 μg colivelin-treated group received the colivelin at 200 μg/kg i.p. at 1 h after CLP. The intraperitoneal injection was chosen to allow for a rapid uptake and bioavailability of the peptide. All groups of mice also received fluid resuscitation (35 ml/kg normal saline solution subcutaneously) immediately after, at 3 h and 12 h after the CLP procedure. To minimize pain at the surgical incision site, lidocaine hydrochloride (1%, 4 mg/kg total dose) was applied locally immediately after the procedure. […] Mice were then sacrificed at 0, 6 and 18 h after CLP. Blood, lungs, kidneys, liver, and thoracic aortas were collected for biochemical assays.
Subcellular fractionation was performed using a centrifugation model. Tissue samples of lung and thoracic aortas were homogenized in a buffer (50 mg tissue/100 μL) containing 0.32 M sucrose, 10 mM Tris-HCl (pH 7.4), 1 mM EGTA, 2 mM EDTA, 5 mM NaN3, 10 mM β-mercaptoethanol, 2 μM leupeptin, 0.15 μM pepstatin A, 0.2 mM phenylmethanesulfonyl fluoride, 50 mM NaF, 1 mM sodium orthovanadate and 0.4 nM microcystin. Samples were centrifuged at 1000×g for 10 min at 4° C. and the supernatants collected as cytosol extracts, which also contain membrane and mitochondria. The pellets were then solubilized in Triton buffer (1% Triton X-100, 250 mM NaCl, 50 mM Tris HCl at pH 7.5, 3 mM EGTA, 3 mM EDTA, 1 mM phenylme-thanesulfonyl fluoride, 0.1 mM sodium orthovanadate, 10% glycerol, 2 mM p-nitrophenyl phosphate, 0.5% NP-40 and 46 μM aprotinin). The lysates were rocked for 1 h and subsequently centrifuged at 15,000×g for 30 min at 4° C. and the supernatant collected as nuclear extracts. The Bradford protein assay was then used for quantitative determination of total proteins.
Cytosol content of total AMPKα1/α2 and its phosphorylated form pAMPKα1/α2 (Santa Cruz Biotechnology, Dallas, TX, USA), cytosol and nuclear content of STAT3 and its phosphorylated forms pSTAT3(Tyr705) and pSTAT3(Ser727) (Cell Signaling Technology, Danvers, MA, USA) were determined by immunoblot analyses; β-actin was concomitantly probed with mouse anti-β-actin (Santa Cruz Biotechnology) as a loading control for both cytosol and nuclear proteins. Extracts were heated at 70° C. in equal volumes of 4× Protein Sample Loading Buffer. Twenty-five μg of proteins were loaded per lane on a 10% Bis-Tris gel. Proteins were separated electrophoretically and transferred to nitro-cellulose membranes. The immunoreaction was detected by near-infrared fluorescence. Membranes were blocked with Odyssey blocking buffer (LI-COR Biotechnology, Lincoln, NE, USA) and incubated with primary antibodies. […]

[2] = colivelin i.p. at 1 h after CLP, vs vehicle

Colivelin (SALLRSIPAPAGASRLLLLTGEIDLP) was tested, and the “Ratio of the phosphorylated/total forms of AMPKα (p-AMPKα/AMPKα), cytosol of thoracic aortas” value (AMPK) was “significantly increased”, the “Microscopic examination of hematoxylin and eosin-stained lung sections” value (lung sections) was “reduced infiltration of inflammatory cells and ameliorated alveolar damage” and the “Dense structure of endothelial glycocalyx in thoracic aorta (electron microscopy)” value [1] was “appeared well preserved”. The “Mitochondria in thoracic aorta cells (electron microscopy)” value [1] was “appeared normal with dense matrix in all cell types”, the “Nuclear expression of pSTAT3(Tyr705), thoracic aorta” value (STAT3; colivelin at the highest dose) was “inhibited” and the “Cytosolic expression of pSTAT3(Ser727), thoracic aorta” value (STAT3; [2]) was “significantly reduced”. For the same substance, the “Cytosolic expression of pSTAT3(Tyr705), thoracic aorta” value (STAT3; [2]) was “significantly reduced”, the “Levels of total STAT3 in the cytosol, thoracic aorta” value (STAT3; [2]) was “restored” and the “Levels of total STAT3 in the nucleus, thoracic aorta” value (STAT3; [2]) was “remained unchanged”. The “Nuclear expression of pSTAT3(Ser727), thoracic aorta” value (STAT3; [2]) was “did not affect”.
